From US10231954B2, “Neurodegenerative therapies” (LYTIX BIOPHARMA AS, priority 2014, dated 2019)

Legend:
Assay type in all cases: biochemical
MNK1 = MNK1 (Homo sapiens, UniProt Q9BUB5); experiment: Kinase profiling MNK1; conditions: 100 micromolar inhibitor concentration, 100 is no change
Source text: (§1) Any value less that 25 is considered to be highly significant inhibition.

MAPKAP-K3 = MAPKAP-K3 (Homo sapiens, UniProt Q16644); experiment: Kinase profiling MAPKAP-K3; conditions: 100 micromolar inhibitor concentration, 100 is no change
Chain of MAPKAP-K3 (Q16644 whole entry, species assumed): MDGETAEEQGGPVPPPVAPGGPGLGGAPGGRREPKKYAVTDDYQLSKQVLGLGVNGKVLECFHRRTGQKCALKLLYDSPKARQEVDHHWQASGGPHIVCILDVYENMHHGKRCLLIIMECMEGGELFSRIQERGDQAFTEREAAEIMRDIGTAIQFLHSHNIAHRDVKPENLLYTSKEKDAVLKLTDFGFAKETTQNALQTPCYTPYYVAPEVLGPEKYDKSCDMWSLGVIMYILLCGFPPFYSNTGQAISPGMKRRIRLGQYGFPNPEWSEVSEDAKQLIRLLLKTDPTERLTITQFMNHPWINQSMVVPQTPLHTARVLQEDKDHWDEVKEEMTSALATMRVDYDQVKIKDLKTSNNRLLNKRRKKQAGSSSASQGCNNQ
Source text: as §1

PRAK = biological target: T1, PRAK (Homo sapiens, UniProt Q8IW41); experiment: Kinase profiling PRAK; conditions: 100 micromolar inhibitor concentration, 100 is no change
T1 sequence (Q8IW41 1-473): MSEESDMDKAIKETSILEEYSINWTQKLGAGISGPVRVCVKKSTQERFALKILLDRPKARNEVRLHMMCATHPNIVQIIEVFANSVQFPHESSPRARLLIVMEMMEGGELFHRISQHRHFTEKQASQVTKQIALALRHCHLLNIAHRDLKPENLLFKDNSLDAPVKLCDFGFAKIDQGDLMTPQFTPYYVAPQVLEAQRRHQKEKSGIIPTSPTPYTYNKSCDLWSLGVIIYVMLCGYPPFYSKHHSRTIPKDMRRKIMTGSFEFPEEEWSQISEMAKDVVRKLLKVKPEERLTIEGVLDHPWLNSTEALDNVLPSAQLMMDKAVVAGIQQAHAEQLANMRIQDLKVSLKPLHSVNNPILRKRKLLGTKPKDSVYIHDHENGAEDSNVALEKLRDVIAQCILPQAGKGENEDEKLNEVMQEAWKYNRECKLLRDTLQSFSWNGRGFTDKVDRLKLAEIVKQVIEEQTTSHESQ
Source text: as §1

PHK = experiment: Kinase profiling PHK; conditions: 100 micromolar inhibitor concentration; 100 is no change
Source text: as §1

CHK1 = biological target: T2, CHK1 (Homo sapiens, UniProt O14757); experiment: Kinase profiling CHK1; conditions: 100 micromolar inhibitor concentration, 100 is no change
T2 sequence (O14757 1-476): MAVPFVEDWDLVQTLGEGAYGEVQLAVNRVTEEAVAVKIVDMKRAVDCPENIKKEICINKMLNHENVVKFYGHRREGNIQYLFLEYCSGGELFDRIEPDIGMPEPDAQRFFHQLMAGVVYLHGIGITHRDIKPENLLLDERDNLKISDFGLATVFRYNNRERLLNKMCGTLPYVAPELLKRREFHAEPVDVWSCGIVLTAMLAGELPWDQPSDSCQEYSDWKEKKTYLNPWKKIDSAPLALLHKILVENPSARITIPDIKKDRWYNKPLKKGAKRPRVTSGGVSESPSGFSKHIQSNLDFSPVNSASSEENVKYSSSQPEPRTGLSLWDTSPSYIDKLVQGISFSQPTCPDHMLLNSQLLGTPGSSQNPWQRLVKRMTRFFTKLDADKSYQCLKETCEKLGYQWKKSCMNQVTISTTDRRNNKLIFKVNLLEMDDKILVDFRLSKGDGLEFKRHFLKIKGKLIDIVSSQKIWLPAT
Source text: as §1

CDK9-Cyclin T1 = CDK9-Cyclin T1 (Homo sapiens, UniProt P50750); experiment: Kinase profiling CDK9-Cyclin T1; conditions: 100 micromolar inhibitor concentration, 100 is no change
Chain of CDK9-Cyclin T1 (P50750 whole entry): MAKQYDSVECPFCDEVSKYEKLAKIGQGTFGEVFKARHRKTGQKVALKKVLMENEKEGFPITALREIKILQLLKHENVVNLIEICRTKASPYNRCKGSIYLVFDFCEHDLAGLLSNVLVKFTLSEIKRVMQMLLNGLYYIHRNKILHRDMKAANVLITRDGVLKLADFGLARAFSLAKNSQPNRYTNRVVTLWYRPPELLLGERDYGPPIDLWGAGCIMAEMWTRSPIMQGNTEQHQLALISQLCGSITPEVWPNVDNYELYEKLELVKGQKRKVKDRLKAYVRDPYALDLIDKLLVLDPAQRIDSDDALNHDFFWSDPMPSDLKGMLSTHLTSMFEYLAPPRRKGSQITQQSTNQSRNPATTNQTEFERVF
Chain of CDK9-Cyclin T1 (O60563 whole entry partner): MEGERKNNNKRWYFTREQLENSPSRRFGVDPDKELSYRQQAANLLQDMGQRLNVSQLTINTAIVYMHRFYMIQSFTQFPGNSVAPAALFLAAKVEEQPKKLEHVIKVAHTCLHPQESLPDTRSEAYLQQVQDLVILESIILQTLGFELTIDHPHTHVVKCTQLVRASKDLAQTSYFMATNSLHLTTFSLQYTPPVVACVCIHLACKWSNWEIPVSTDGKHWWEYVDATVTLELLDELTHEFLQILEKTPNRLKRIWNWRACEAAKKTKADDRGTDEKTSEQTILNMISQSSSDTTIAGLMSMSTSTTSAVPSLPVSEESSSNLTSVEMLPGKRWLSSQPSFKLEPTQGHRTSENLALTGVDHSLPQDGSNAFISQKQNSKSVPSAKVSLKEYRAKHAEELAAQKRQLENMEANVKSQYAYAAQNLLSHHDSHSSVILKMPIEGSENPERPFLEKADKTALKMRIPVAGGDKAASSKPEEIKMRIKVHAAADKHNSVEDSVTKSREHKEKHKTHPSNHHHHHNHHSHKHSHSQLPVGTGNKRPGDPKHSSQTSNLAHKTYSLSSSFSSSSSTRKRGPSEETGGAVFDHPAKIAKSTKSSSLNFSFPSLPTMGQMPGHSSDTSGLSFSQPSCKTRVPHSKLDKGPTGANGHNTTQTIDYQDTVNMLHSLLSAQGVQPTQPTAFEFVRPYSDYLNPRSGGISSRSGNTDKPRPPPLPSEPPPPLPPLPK
Source text: as §1

Aurora A = biological target: T3, Aurora A (Homo sapiens, UniProt O14965); experiment: Kinase profiling Aurora A; conditions: 100 micromolar inhibitor concentration, 100 is no change
T3 sequence (O14965 1-403): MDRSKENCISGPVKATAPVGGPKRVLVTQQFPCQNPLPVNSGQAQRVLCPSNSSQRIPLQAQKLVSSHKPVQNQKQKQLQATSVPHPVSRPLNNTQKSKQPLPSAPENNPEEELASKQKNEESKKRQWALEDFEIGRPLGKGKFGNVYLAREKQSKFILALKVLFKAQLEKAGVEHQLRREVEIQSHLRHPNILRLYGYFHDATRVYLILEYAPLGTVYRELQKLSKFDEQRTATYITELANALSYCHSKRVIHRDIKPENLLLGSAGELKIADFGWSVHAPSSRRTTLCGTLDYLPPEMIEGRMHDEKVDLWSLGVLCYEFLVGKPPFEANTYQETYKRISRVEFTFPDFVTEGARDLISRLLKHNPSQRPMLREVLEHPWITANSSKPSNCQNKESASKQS
Source text: as §1

TESK1 = TESK1 (Homo sapiens, UniProt Q15569); experiment: Kinase profiling TESK1; conditions: 100 micromolar inhibitor concentration, 100 is no change
Chain of TESK1 (Q15569 whole entry, species assumed): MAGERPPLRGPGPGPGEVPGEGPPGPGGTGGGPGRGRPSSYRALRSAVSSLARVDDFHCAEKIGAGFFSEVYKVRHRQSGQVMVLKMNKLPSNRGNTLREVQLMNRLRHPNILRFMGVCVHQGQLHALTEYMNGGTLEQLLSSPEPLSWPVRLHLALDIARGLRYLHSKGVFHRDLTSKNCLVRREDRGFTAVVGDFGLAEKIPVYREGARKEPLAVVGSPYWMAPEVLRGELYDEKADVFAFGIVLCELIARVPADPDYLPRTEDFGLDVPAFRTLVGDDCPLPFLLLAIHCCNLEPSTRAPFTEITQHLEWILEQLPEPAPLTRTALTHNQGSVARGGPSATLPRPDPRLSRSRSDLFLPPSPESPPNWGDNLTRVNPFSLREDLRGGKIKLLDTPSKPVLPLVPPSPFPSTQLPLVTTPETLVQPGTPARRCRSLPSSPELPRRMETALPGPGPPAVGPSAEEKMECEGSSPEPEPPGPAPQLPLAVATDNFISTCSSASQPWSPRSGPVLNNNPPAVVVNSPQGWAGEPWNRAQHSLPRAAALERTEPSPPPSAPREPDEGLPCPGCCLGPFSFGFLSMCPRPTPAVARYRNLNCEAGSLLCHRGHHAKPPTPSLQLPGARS
Source text: as §1

IRAK1 = IRAK1 (Homo sapiens, UniProt P51617); experiment: Kinase profiling IRAK1; conditions: 100 micromolar inhibitor concentration, 100 is no change
Chain of IRAK1 (P51617 whole entry, species assumed): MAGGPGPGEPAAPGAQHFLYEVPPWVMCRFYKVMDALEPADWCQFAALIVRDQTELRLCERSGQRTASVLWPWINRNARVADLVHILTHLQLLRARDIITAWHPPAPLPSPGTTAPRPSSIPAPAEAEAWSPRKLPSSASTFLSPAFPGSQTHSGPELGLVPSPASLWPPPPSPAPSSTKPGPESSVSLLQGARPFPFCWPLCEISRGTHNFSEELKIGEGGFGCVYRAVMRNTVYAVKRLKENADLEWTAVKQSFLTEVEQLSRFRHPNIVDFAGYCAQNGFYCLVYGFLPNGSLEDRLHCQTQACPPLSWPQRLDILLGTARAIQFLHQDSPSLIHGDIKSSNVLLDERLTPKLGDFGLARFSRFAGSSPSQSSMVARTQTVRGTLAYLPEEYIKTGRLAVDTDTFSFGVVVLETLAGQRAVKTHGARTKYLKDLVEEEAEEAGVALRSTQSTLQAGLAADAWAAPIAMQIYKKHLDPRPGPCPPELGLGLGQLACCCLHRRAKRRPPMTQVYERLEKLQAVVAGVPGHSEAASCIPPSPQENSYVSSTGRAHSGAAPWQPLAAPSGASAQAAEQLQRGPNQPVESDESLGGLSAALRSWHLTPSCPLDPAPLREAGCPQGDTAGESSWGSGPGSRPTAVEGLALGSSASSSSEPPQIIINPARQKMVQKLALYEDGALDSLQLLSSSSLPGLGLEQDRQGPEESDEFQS
Source text: as §1

MPSK1 = MPSK1 (Homo sapiens, UniProt O75716); experiment: Kinase profiling MPSK1; conditions: 100 micromolar inhibitor concentration, 100 is no change
Chain of MPSK1 (O75716 whole entry, species assumed): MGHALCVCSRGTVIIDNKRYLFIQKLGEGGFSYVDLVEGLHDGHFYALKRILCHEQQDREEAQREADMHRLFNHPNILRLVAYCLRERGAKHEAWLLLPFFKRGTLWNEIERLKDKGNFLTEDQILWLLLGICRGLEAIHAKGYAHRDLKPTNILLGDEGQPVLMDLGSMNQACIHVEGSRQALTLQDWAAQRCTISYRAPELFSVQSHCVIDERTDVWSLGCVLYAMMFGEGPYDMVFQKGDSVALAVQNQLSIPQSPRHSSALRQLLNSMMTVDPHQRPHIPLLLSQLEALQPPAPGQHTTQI
Source text: as §1

ULK1 = biological target: T4, ULK1 (Homo sapiens, UniProt O75385); experiment: Kinase profiling ULK1; conditions: 100 micromolar inhibitor concentration, 100 is no change
T4 sequence (O75385 1-1050): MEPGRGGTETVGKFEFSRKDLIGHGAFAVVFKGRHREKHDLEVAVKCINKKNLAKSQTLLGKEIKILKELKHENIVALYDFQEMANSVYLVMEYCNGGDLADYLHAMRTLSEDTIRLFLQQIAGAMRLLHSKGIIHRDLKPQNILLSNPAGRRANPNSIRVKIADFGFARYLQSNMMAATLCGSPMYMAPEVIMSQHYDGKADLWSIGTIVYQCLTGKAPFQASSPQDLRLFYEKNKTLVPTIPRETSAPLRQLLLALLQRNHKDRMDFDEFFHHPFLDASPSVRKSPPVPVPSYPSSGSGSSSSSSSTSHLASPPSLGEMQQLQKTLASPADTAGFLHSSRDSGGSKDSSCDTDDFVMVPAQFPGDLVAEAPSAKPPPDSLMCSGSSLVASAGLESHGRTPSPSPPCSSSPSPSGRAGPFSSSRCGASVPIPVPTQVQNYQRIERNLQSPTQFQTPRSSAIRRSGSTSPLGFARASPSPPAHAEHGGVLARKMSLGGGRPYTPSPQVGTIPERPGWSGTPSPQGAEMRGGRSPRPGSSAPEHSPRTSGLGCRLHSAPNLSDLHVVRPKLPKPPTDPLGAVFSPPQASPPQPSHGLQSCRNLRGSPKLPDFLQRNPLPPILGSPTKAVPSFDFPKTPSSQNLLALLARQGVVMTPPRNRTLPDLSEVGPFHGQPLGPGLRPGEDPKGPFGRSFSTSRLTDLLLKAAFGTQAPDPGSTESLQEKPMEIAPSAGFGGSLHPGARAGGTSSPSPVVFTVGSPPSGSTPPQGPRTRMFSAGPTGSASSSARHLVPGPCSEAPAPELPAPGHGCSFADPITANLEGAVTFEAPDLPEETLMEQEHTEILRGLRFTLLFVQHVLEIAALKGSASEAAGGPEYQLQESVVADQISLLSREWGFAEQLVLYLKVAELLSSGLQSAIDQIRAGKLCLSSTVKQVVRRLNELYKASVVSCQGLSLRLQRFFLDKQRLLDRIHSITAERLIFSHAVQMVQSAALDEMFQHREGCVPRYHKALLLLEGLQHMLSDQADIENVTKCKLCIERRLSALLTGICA
Source text: as §1

TIE2 = TIE2 (Homo sapiens, UniProt Q02763); experiment: Kinase profiling TIE2; conditions: 100 micromolar inhibitor concentration, 100 is no change
Chain of TIE2 (Q02763 23-1124, species assumed): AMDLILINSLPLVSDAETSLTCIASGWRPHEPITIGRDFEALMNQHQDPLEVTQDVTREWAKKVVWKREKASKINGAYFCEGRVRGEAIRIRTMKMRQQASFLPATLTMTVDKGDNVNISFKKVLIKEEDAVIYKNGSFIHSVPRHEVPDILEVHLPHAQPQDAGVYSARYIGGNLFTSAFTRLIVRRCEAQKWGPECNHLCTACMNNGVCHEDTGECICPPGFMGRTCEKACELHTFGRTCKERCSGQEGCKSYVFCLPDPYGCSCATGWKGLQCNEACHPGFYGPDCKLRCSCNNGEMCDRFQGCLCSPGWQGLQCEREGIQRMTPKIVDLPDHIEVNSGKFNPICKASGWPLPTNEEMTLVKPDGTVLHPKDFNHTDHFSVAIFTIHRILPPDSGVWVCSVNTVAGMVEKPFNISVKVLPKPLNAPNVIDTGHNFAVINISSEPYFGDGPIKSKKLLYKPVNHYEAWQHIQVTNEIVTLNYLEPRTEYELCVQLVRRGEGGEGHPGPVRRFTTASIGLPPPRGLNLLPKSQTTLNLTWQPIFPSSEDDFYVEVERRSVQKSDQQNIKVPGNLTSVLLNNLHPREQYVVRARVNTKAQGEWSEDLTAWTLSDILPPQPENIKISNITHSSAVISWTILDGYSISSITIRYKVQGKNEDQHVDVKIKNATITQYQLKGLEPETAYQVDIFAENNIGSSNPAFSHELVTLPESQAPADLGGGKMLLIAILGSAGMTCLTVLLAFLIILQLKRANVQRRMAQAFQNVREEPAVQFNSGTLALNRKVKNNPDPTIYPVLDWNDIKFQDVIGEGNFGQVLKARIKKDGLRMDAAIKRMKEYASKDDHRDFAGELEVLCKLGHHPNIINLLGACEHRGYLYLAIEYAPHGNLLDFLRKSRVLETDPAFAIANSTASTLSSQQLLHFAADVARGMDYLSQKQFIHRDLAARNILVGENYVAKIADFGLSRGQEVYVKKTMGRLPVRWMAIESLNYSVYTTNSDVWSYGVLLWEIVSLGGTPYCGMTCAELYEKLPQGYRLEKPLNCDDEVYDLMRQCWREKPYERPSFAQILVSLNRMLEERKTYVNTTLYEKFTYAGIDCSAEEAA
Source text: as §1

Chain of MNK1 (Q9BUB5 whole entry, species assumed): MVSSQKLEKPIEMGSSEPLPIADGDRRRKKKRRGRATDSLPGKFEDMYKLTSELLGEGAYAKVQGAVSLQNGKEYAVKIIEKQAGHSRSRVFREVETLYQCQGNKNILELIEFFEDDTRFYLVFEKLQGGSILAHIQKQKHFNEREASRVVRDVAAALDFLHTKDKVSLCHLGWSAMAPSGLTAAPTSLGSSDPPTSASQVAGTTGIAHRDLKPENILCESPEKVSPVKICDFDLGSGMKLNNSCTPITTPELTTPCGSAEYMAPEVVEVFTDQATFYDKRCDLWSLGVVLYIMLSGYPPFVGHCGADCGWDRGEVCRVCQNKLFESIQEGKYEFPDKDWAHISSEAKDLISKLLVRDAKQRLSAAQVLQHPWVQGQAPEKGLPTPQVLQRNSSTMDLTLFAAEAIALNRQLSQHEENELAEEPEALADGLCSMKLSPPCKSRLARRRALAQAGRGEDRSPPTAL

## O=C(Nc1nc2cc(O)ccc2s1)c1ccncc1 [Compound 03-11]
MNK1
  residual kinase activity, MNK1: 45
MAPKAP-K3
  residual kinase activity, MAPKAP-K3: 68
PRAK
  residual kinase activity, PRAK: 86
PHK
  residual kinase activity, PHK: 63
CHK1
  residual kinase activity, CHK1: 78
CDK9-Cyclin T1
  residual kinase activity, CDK9-Cyclin T1: 68
Aurora A
  residual kinase activity, Aurora A: 106
TESK1
  residual kinase activity, TESK1: 88
IRAK1
  residual kinase activity, IRAK1: 68
MPSK1
  residual kinase activity, MPSK1: 73
ULK1
  residual kinase activity, ULK1: 90
TIE2
  residual kinase activity, TIE2: 84

## O=C(Nc1nc2ccc(O)cc2s1)c1ccccn1 [Compound 03-12]
MNK1
  residual kinase activity, MNK1: 67
MAPKAP-K3
  residual kinase activity, MAPKAP-K3: 31
PRAK
  residual kinase activity, PRAK: 65
PHK
  residual kinase activity, PHK: 37
CHK1
  residual kinase activity, CHK1: 90
CDK9-Cyclin T1
  residual kinase activity, CDK9-Cyclin T1: 76
Aurora A
  residual kinase activity, Aurora A: 95
TESK1
  residual kinase activity, TESK1: 84
IRAK1
  residual kinase activity, IRAK1: 37
MPSK1
  residual kinase activity, MPSK1: 90
ULK1
  residual kinase activity, ULK1: 96
TIE2
  residual kinase activity, TIE2: 76

## O=C(Nc1nc2cc(O)ccc2s1)c1ccccn1 [Compound 03-13]
MNK1
  residual kinase activity, MNK1: 100
MAPKAP-K3
  residual kinase activity, MAPKAP-K3: 62
PRAK
  residual kinase activity, PRAK: 90
PHK
  residual kinase activity, PHK: 28
CHK1
  residual kinase activity, CHK1: 88
CDK9-Cyclin T1
  residual kinase activity, CDK9-Cyclin T1: 93
Aurora A
  residual kinase activity, Aurora A: 93
TESK1
  residual kinase activity, TESK1: 93
IRAK1
  residual kinase activity, IRAK1: 38
MPSK1
  residual kinase activity, MPSK1: 102
ULK1
  residual kinase activity, ULK1: 78
TIE2
  residual kinase activity, TIE2: 106

## COc1ccc2sc(NC(C)=O)nc2c1 [Compound 03-21]
MNK1; read-out: residual kinase activity, MNK1
  remaining activity at 100 µM: 77%
MAPKAP-K3; read-out: residual kinase activity, MAPKAP-K3
  remaining activity at 100 µM: 97%
PRAK; read-out: residual kinase activity, PRAK
  remaining activity at 100 µM: 71%
PHK
  residual kinase activity, PHK: 111
CHK1; read-out: residual kinase activity, CHK1
  remaining activity at 100 µM: 110%
CDK9-Cyclin T1; read-out: residual kinase activity, CDK9-Cyclin T1
  remaining activity at 100 µM: 90%
Aurora A; read-out: residual kinase activity, Aurora A
  remaining activity at 100 µM: 103%
TESK1; read-out: residual kinase activity, TESK1
  remaining activity at 100 µM: 104%
IRAK1; read-out: residual kinase activity, IRAK1
  remaining activity at 100 µM: 45%
MPSK1; read-out: residual kinase activity, MPSK1
  remaining activity at 100 µM: 97%
ULK1; read-out: residual kinase activity, ULK1
  remaining activity at 100 µM: 103%
TIE2; read-out: residual kinase activity, TIE2
  remaining activity at 100 µM: 91%

## CC(=O)Nc1nc2ccccc2s1 [Compound 03-32]
MNK1
  residual kinase activity, MNK1: 89
MAPKAP-K3
  residual kinase activity, MAPKAP-K3: 61
PRAK
  residual kinase activity, PRAK: 78
PHK
  residual kinase activity, PHK: 94
CHK1
  residual kinase activity, CHK1: 105
CDK9-Cyclin T1
  residual kinase activity, CDK9-Cyclin T1: 45
Aurora A
  residual kinase activity, Aurora A: 109
TESK1
  residual kinase activity, TESK1: 95
IRAK1
  residual kinase activity, IRAK1: 65
MPSK1
  residual kinase activity, MPSK1: 86
ULK1
  residual kinase activity, ULK1: 102
TIE2
  residual kinase activity, TIE2: 112

## O=C(Nc1nc2cc(O)ccc2s1)c1cccnc1 [Compound 03-33]
MNK1
  residual kinase activity, MNK1: 21
MAPKAP-K3
  residual kinase activity, MAPKAP-K3: 97
PRAK
  residual kinase activity, PRAK: 83
PHK
  residual kinase activity, PHK: 74
CHK1
  residual kinase activity, CHK1: 106
CDK9-Cyclin T1
  residual kinase activity, CDK9-Cyclin T1: 97
Aurora A
  residual kinase activity, Aurora A: 108
TESK1
  residual kinase activity, TESK1: 102
IRAK1
  residual kinase activity, IRAK1: 57
MPSK1
  residual kinase activity, MPSK1: 101
ULK1
  residual kinase activity, ULK1: 88
TIE2
  residual kinase activity, TIE2: 100

## O=C(Nc1nc2ccc(O)cc2s1)c1ccccc1 [Compound 03-60]
MNK1
  residual kinase activity, MNK1: 18
MAPKAP-K3
  residual kinase activity, MAPKAP-K3: 92
PRAK
  residual kinase activity, PRAK: 39
PHK
  residual kinase activity, PHK: 33
CHK1
  residual kinase activity, CHK1: 72
CDK9-Cyclin T1
  residual kinase activity, CDK9-Cyclin T1: 76
Aurora A
  residual kinase activity, Aurora A: 82
TESK1
  residual kinase activity, TESK1: 65
IRAK1
  residual kinase activity, IRAK1: 26
MPSK1
  residual kinase activity, MPSK1: 106
ULK1
  residual kinase activity, ULK1: 47
TIE2
  residual kinase activity, TIE2: 41
